According to PubChem BioAssay AID2060487 (Molecular Pharmacology Branch, DTP, NCI, 2025):

System: 997537-175-T-J1-PDC complex spheroid viability
Experiment: Anticancer human tumor 997537-175-T-J1-PDC patient-derived colon adenocarcinoma cell line growth inhibition [GQUAD]
Conditions: for IC50: curve of first compound; for viability, T/C: stronger effect = lower value; active = viability on the fitted dose curve at most 10% of control; inactive = the rest
Source text: DNA G-quadruplex Stabilizer Agents in Combinations in Complex Spheroids
A high-throughput screen of multi-cell type tumor spheroids was designed to identify active combinations of DNA G-quadruplex stabilizer agents and targeted small molecules. Complex spheroids include a stromal component modeled by human endothelial cells (HUVEC) and fibroblasts modeled by human mesenchymal stem cells (MSCs). The concentration ranges selected for each drug and investigational agent were based upon clinically achievable concentrations if the clinical Cmax of the agent was known.
Compounds. The drugs and investigational agents: pidnarulex (CX-5461; NSC782164), APTO-253 (NSC789042), BRACO-19 (NSC847499), peposertib (NSC802822), ceralasertib (NSC780249), elimusertib (NSC800525), camonsertib (NSC841442), AZD-1390 (NSC803789), olaparib (NSC753686), talazoparib (NSC767125), ART-558 (NSC835418), sotorasib (NSC818433), MRTX-1133 (NSC836407), SN-38 (NSC673596), topotecan (NSC609699), etoposide (NSC141540), doxorubicin (NSC123127), gemcitabine (NSC613327), 5-fluorouracil (NSC19893), paclitaxel (NSC125973), vemurafenib (NSC761431), panobinostat (NSC761190), R-306465 (JNJ-16241199; NSC773264), adavosertib (NSC754352), TP-3654 (NSC805149), carboplatin (NSC241240), KSQ-4279 (NSC840948), and staurosporine (NSC755774) were obtained from the National Cancer Institute (NCI) Developmental Therapeutics Program Chemical Repository (34). The FDA-approved anticancer drug set is available from the NCI Developmental Therapeutics Program. […] The stock solutions were prepared in dimethyl sulfoxide (DMSO, Sigma-Aldrich, St. Louis, MO, cat. D2650) at 800-fold the tested concentration and stored at -70 degrees C prior to their use. All drugs and investigational agents were tested over a range starting from a high concentration at or near the clinical Cmax and decreasing in half-log increments. If the clinical Cmax for an agent had not been determined, the highest concentration tested was 10 microM.
2.3 Cell Culture. All cells were maintained in an incubator at 37 degrees C and 5% CO2 with 95% humidity. The PDC lines were cultured according to standard operating procedures established by the NCI PDMR. All PDCs were thawed and cultured in Matrigel-coated flasks prepared with a working solution of 1X Ham's F-12 nutrient mix, without supplementation (Invitrogen, cat. 11765054), 100 U/mL penicillin-streptomycin (Invitrogen, cat. 15140122), and 2.5% Matrigel (Corning Inc., cat. 354248) for the first three passages. The 857933-349-R-J2-PDC line was cultured in 6C/Colon 1B media, which includes advanced DMEM/F-12 (Thermo Fisher Scientific, cat. 12634028), 10 mM HEPES (Thermo Fisher Scientific, cat. 15630080), 1X GlutaMAX supplement (Thermo Fisher Scientific, cat. 35050061), 0.1 mg/mL primocin (InvivoGen, cat. ant-pm-2), 10% defined fetal bovine serum, heat inactivated (HyClone Laboratories Inc., cat. SH30070.03HI), 50% L-WRN conditioned media (ATCC, cat. CRL-3276), 1.25 mM N-Acetyl-L-cysteine (Sigma-Aldrich, cat. A9165), 10 mM nicotinamide (Sigma-Aldrich, cat. N0636), 1X B-27 supplement (Thermo Fisher Scientific, cat. 17504044), 1X N-2 supplement (Thermo Fisher Scientific, cat. 17502048), 10 microM Y-27632 dihydrochloride (Tocris Bioscience, cat. 1254), and 50 ng/mL human EGF recombinant protein (Thermo Fisher Scientific, cat. PHG0311). The 485176-168-R4-J1-PDC line was cultured in Panc media, which includes all 6C/Colon 1B media components plus 100 ng/mL human FGF-10 (Thermo Fisher Scientific, cat. 100-26), 500 nM SB-431542 (Selleckchem, cat. S1067), and gastrin (Tocris, cat. 3006).
[…]

[1] = second compound 0.0316 µM, first compound 0.0316 µM
[2] = second compound 0.0316 µM, first compound 0.316 µM
[3] = second compound 0.1 µM, first compound 0.0316 µM
[4] = second compound 0.1 µM, first compound 0.316 µM
[5] = second compound 0.316 µM, first compound 0.0316 µM
[6] = second compound 0.316 µM, first compound 0.316 µM
[7] = second compound 1 µM, first compound 0.0316 µM
[8] = second compound 1 µM, first compound 0.316 µM
[9] = second compound 3.16 µM, first compound 0.0316 µM
[10] = second compound 3.16 µM, first compound 0.316 µM
[11] = second compound 10 µM, first compound 0.0316 µM
[12] = second compound 10 µM, first compound 0.316 µM
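Also: spheroids exposed to the agents for 7 days.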

Cc1[nH]c2ccccc2c1CCNCc1ccc(/C=C/C(=O)NO)cc1 + CN(C)c1ccc(Nc2c3ccc(NC(=O)CCN4CCCC4)cc3nc3cc(NC(=O)CCN4CCCC4)ccc23)cc1
199 nM: IC50 (second compound 1 µM)
252 nM: IC50 (second compound 0.316 µM)
> 316 nM: IC50 (second compound 3.16 µM)
inactive: viability, T/C (second compound 0.0316 µM, first compound 0.000999 µM) 103% | viability, T/C (second compound 0.0316 µM, first compound 0.00316 µM) 74.8% | viability, T/C (second compound 0.0316 µM, first compound 0.00999 µM) 85% | viability, T/C [1] 102% | viability, T/C (second compound 0.0316 µM, first compound 0.0999 µM) 77.2% | viability, T/C [2] 48.8% | viability, T/C (second compound 0.1 µM, first compound 0.000999 µM) 97.8% | viability, T/C (second compound 0.1 µM, first compound 0.00316 µM) 86% | viability, T/C (second compound 0.1 µM, first compound 0.00999 µM) 79.2% | viability, T/C [3] 94% | viability, T/C (second compound 0.1 µM, first compound 0.0999 µM) 78.8% | viability, T/C [4] 42.4% | viability, T/C (second compound 0.316 µM, first compound 0.000999 µM) 91.5% | viability, T/C (second compound 0.316 µM, first compound 0.00316 µM) 81.8% | viability, T/C (second compound 0.316 µM, first compound 0.00999 µM) 88% | viability, T/C [5] 80.9% | viability, T/C (second compound 0.316 µM, first compound 0.0999 µM) 93.3% | viability, T/C [6] 41% | viability, T/C (second compound 1 µM, first compound 0.000999 µM) 88.5% | viability, T/C (second compound 1 µM, first compound 0.00316 µM) 77.1% | viability, T/C (second compound 1 µM, first compound 0.00999 µM) 87.5% | viability, T/C [7] 80.8% | viability, T/C (second compound 1 µM, first compound 0.0999 µM) 96.1% | viability, T/C [8] 26% | viability, T/C (second compound 3.16 µM, first compound 0.000999 µM) 89.5% | viability, T/C (second compound 3.16 µM, first compound 0.00316 µM) 74.9% | viability, T/C (second compound 3.16 µM, first compound 0.00999 µM) 87.6% | viability, T/C [9] 68% | viability, T/C (second compound 3.16 µM, first compound 0.0999 µM) 91.6% | viability, T/C [10] 55% | viability, T/C (second compound 10 µM, first compound 0.000999 µM) 82.3% | viability, T/C (second compound 10 µM, first compound 0.00316 µM) 56.7% | viability, T/C (second compound 10 µM, first compound 0.00999 µM) 96.1% | viability, T/C [11] 81.1% | viability, T/C (second compound 10 µM, first compound 0.0999 µM) 98.8% | viability, T/C [12] 39%
253 nM: IC50 (second compound 0.1 µM)
301 nM: IC50 (second compound 0.0316 µM)
237 nM: IC50 (second compound 10 µM)

Cc1cccc(N(C)C(=O)C2C(O)CCN2c2nc(C)cc(C(F)(F)F)c2C#N)c1 (centres undefined) + Cc1cnc(CNC(=O)c2c(=O)c3ccc(N4CCCN(C)CC4)nc3n3c2sc2ccccc23)cn1
> 10000 nM: IC50 (second compound 0.0316 µM) | IC50 (second compound 0.1 µM) | IC50 (second compound 0.316 µM) | IC50 (second compound 1 µM) | IC50 (second compound 3.16 µM) | IC50 (second compound 10 µM)
inactive: viability, T/C [1] 82.4% | viability, T/C (second compound 0.0316 µM, first compound 0.1 µM) 80.5% | viability, T/C [2] 89.2% | viability, T/C (second compound 0.0316 µM, first compound 1 µM) 97.2% | viability, T/C (second compound 0.0316 µM, first compound 3.16 µM) 82.3% | viability, T/C (second compound 0.0316 µM, first compound 10 µM) 98.5% | viability, T/C [3] 102% | viability, T/C (second compound 0.1 µM, first compound 0.1 µM) 94.2% | viability, T/C [4] 94.2% | viability, T/C (second compound 0.1 µM, first compound 1 µM) 67% | viability, T/C (second compound 0.1 µM, first compound 3.16 µM) 88.6% | viability, T/C (second compound 0.1 µM, first compound 10 µM) 92.4% | viability, T/C [5] 93.7% | viability, T/C (second compound 0.316 µM, first compound 0.1 µM) 75.2% | viability, T/C [6] 99.5% | viability, T/C (second compound 0.316 µM, first compound 1 µM) 73.8% | viability, T/C (second compound 0.316 µM, first compound 3.16 µM) 112% | viability, T/C (second compound 0.316 µM, first compound 10 µM) 84.3% | viability, T/C [7] 94.6% | viability, T/C (second compound 1 µM, first compound 0.1 µM) 98.5% | viability, T/C [8] 87.8% | viability, T/C (second compound 1 µM, first compound 1 µM) 88.4% | viability, T/C (second compound 1 µM, first compound 3.16 µM) 106% | viability, T/C (second compound 1 µM, first compound 10 µM) 99.7% | viability, T/C [9] 77.3% | viability, T/C (second compound 3.16 µM, first compound 0.1 µM) 103% | viability, T/C [10] 96% | viability, T/C (second compound 3.16 µM, first compound 1 µM) 93.4% | viability, T/C (second compound 3.16 µM, first compound 3.16 µM) 107% | viability, T/C (second compound 3.16 µM, first compound 10 µM) 87.7% | viability, T/C [11] 85.1% | viability, T/C (second compound 10 µM, first compound 0.1 µM) 114% | viability, T/C [12] 98.3% | viability, T/C (second compound 10 µM, first compound 1 µM) 95% | viability, T/C (second compound 10 µM, first compound 3.16 µM) 96.9% | viability, T/C (second compound 10 µM, first compound 10 µM) 86.7%
